According to ChEMBL document CHEMBL5465560, “Selectivity Literature for EUbOPEN Chemogenomic Library” (2024):

Assays:
[1] = target: Histone-lysine N-methyltransferase, H3 lysine-36 specific (Homo sapiens) (UniProt Q96L73); details: at 10 µM
[2] = target: LIM domain kinase 2 (Homo sapiens) (UniProt P53671); assay: Selectivity interaction (KinomeScan (DiscoverX)) EUB0000695a LIMK2; details: at 100 nM
[3] = target: T1, Serine/threonine-protein kinase Nek2 (Homo sapiens) (UniProt P51955); assay: Selectivity interaction (KinomeScan (DiscoverX)) EUB0000695a NEK2; details: at 100 nM
T1 sequence (whole entry): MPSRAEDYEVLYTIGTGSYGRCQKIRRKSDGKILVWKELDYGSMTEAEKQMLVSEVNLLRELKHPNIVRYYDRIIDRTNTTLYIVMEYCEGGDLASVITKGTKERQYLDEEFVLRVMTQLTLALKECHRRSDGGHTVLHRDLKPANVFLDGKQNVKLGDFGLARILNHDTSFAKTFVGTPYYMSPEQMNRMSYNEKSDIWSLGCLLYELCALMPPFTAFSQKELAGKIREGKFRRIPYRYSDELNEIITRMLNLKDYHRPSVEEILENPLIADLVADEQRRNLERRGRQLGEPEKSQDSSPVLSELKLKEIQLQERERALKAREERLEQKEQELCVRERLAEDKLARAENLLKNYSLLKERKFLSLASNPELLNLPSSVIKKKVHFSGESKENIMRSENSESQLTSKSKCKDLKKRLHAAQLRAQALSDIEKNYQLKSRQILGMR

[4] = target: T2, Serine/threonine-protein kinase Nek1 (Homo sapiens) (UniProt Q96PY6); assay: Selectivity interaction (Kinase panel (Z-LYTE Assay)) EUB0001632a NEK1; details: at 10 µM
T2 sequence (whole entry): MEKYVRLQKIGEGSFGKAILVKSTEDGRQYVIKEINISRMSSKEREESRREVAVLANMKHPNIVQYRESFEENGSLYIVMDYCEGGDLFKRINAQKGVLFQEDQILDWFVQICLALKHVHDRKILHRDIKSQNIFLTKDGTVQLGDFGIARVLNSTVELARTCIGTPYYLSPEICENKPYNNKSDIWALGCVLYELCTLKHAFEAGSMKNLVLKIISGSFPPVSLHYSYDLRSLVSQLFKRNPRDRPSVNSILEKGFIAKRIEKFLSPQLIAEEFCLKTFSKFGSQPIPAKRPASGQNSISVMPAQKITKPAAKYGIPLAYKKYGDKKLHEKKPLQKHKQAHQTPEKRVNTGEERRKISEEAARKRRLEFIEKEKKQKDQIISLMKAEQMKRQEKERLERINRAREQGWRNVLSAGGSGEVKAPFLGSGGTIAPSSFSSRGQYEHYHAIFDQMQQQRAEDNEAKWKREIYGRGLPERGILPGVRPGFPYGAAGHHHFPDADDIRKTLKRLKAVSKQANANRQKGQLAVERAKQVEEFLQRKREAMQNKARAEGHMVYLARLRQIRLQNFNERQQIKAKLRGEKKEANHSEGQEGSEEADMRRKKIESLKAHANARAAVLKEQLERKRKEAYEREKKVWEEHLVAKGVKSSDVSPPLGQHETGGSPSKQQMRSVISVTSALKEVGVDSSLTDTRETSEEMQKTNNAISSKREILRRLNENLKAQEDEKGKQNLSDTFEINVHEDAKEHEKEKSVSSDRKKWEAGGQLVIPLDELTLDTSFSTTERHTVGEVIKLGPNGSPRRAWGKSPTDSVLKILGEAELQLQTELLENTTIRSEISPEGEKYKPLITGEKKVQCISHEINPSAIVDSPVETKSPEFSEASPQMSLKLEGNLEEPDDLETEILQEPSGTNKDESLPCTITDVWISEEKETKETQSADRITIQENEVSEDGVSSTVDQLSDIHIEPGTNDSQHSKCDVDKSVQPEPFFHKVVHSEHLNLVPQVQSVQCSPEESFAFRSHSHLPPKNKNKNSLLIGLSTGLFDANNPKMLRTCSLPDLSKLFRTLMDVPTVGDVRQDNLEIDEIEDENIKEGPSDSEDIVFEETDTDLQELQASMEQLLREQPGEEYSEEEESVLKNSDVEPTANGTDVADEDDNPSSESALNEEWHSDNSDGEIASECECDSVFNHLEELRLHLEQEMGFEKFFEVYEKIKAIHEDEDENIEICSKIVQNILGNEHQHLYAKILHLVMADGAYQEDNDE

[5] = target: Ribosomal protein S6 kinase alpha-3 (Homo sapiens, UniProt P51812); assay: Selectivity interaction (KinomeScan (DiscoverX)) EUB0001049a RPS6KA3; details: at 1 µM
[6] = target: Fibroblast growth factor receptor 4 (Homo sapiens, UniProt P22455); assay: Selectivity interaction (KinomeScan (DiscoverX)) EUB0001619a FGFR4; details: at 1 µM
Sequence of Fibroblast growth factor receptor 4 (P22455 22-802 limits assumed): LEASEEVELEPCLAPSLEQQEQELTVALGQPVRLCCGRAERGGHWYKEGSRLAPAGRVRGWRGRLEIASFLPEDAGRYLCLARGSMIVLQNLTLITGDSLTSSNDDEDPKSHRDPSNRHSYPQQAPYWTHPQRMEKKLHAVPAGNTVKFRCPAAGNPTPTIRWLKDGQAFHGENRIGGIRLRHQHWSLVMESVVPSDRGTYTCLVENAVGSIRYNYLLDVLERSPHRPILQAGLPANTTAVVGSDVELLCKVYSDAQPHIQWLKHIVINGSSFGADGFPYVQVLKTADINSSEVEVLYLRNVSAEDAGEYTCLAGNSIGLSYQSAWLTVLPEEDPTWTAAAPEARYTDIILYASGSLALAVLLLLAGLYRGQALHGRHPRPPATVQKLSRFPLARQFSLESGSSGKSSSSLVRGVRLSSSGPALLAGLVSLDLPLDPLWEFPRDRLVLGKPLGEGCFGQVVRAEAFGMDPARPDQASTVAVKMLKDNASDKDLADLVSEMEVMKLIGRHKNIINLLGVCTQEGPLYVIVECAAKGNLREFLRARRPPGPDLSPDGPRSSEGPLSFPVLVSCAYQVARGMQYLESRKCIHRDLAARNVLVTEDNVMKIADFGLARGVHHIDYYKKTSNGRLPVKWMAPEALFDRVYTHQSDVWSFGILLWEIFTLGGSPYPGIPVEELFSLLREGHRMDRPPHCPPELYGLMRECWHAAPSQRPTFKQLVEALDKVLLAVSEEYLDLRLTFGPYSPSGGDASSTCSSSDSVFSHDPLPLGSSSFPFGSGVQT

SRSF protein kinase 1 = SRSF protein kinase 1 (Homo sapiens, UniProt Q96SB4); assay: Selectivity interaction (KinomeScan (DiscoverX)) EUB0000607a SRPK1; details: at 10 µM
Sequence of SRSF protein kinase 1 (Q96SB4 whole entry): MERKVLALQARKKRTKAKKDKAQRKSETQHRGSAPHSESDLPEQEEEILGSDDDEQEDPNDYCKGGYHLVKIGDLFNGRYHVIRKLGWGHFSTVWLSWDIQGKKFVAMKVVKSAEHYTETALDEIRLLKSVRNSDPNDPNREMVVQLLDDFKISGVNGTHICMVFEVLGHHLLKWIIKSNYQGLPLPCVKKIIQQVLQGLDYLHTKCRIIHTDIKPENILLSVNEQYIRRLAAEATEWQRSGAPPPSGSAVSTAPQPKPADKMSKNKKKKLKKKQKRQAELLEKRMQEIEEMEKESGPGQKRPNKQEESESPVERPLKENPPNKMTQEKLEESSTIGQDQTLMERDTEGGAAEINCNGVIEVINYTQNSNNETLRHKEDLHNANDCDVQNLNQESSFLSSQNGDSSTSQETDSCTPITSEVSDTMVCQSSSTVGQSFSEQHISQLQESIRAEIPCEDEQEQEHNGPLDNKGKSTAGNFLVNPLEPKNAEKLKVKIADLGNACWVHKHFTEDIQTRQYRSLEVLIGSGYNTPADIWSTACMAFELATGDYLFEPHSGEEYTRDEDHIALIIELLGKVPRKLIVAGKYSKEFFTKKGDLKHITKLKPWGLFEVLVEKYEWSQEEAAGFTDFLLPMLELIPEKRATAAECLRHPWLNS

[7] = target: T3, Serine/threonine-protein kinase greatwall (Homo sapiens) (UniProt Q96GX5); assay: Selectivity interaction (ActivX KiNativ screen (kinase selectivity in THP-1 cell lysates)) EUB0000639a MASTL; assay type: subcellular; details: lysate, at 5 µM
T3 sequence (whole entry): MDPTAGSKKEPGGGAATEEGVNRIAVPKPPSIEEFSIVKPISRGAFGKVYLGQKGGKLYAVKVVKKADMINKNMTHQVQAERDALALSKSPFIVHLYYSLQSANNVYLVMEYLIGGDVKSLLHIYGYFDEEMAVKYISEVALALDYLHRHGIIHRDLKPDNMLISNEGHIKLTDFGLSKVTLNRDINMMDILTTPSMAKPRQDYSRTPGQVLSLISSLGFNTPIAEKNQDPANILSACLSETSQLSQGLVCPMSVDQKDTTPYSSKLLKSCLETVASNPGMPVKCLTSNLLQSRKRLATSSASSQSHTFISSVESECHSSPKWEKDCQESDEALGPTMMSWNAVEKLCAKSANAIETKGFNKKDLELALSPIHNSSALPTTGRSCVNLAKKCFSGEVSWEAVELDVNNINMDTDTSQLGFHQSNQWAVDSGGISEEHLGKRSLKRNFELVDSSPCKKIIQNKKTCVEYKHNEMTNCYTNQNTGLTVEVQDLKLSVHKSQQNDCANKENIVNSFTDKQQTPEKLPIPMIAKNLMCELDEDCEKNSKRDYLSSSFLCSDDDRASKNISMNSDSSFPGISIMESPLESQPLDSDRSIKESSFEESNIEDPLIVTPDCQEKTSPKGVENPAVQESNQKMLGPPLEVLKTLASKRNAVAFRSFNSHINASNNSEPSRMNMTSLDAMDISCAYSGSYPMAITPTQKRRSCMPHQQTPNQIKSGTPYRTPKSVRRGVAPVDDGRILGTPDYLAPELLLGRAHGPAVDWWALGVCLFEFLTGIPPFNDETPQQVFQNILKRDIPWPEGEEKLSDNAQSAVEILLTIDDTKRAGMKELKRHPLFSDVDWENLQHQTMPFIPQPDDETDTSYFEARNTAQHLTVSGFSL

Sequence of Histone-lysine N-methyltransferase, H3 lysine-36 specific (Homo sapiens) (Q96L73 whole entry, the tested form may be a part): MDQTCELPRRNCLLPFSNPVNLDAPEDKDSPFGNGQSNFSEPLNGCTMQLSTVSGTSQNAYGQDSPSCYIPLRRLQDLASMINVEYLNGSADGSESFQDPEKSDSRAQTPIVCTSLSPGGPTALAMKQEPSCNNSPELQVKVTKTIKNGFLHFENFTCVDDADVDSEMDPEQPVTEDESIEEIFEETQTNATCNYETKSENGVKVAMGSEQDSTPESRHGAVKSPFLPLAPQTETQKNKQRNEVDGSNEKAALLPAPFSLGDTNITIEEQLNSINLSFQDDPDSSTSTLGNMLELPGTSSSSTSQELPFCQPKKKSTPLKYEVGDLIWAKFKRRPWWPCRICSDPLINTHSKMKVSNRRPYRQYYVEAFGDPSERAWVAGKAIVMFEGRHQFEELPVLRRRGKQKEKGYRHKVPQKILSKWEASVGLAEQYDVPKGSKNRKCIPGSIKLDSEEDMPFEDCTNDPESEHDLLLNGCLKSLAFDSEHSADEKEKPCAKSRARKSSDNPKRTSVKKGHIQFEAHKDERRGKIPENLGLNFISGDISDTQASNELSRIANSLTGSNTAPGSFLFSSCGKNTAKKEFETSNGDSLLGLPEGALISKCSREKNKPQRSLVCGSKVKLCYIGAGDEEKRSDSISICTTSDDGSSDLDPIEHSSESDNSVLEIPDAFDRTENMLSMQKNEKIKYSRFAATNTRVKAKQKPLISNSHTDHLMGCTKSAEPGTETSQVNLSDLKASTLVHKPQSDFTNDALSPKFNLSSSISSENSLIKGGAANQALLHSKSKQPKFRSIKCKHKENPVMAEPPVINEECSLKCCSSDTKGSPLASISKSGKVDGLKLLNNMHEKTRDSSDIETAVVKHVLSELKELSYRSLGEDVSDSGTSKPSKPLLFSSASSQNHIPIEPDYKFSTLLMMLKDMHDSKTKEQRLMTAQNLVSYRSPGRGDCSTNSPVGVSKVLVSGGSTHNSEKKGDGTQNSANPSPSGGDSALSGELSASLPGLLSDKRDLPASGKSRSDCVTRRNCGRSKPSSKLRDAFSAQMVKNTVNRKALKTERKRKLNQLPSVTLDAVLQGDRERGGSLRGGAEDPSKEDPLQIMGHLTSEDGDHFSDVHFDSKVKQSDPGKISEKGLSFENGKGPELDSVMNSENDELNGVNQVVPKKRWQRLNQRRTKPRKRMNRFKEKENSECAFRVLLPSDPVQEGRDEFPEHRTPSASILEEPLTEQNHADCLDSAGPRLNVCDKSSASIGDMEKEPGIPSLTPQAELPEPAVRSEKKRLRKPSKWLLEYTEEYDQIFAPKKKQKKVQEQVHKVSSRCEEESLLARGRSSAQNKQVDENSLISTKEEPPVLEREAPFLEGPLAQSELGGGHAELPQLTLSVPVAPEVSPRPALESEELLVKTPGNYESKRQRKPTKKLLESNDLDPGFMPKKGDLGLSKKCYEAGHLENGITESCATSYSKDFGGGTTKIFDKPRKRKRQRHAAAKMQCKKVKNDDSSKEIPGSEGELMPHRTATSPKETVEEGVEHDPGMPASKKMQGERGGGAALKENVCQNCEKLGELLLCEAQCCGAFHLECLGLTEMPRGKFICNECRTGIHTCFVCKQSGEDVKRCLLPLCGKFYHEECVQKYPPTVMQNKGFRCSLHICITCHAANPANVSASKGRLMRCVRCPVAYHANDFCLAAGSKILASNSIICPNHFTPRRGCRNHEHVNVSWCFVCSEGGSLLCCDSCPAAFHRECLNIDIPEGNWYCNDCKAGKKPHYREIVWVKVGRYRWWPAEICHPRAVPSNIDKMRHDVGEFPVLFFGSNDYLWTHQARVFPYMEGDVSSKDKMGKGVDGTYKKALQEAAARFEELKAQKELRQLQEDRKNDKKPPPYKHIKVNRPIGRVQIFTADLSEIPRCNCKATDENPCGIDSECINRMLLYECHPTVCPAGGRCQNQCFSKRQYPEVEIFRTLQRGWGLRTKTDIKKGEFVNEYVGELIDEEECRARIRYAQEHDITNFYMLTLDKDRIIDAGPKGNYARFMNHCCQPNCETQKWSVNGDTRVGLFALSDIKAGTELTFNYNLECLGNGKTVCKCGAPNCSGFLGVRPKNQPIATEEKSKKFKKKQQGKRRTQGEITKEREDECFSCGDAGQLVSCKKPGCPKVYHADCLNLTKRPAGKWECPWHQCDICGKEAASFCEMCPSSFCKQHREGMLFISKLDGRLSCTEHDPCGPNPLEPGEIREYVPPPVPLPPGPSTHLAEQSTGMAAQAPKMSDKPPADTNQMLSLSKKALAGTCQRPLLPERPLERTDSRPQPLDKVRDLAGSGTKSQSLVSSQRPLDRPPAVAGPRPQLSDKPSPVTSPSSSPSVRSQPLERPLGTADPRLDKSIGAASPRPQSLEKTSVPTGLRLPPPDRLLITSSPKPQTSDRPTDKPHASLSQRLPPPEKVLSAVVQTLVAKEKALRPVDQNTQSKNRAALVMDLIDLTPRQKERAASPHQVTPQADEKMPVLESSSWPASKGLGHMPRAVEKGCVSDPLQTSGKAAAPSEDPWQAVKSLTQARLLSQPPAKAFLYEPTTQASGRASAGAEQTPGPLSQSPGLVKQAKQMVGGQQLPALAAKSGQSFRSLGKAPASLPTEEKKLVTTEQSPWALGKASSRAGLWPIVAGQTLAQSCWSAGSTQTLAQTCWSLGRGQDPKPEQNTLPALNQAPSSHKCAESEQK
Sequence of LIM domain kinase 2 (Homo sapiens) (P53671 whole entry, looked up, the tested form may be a part): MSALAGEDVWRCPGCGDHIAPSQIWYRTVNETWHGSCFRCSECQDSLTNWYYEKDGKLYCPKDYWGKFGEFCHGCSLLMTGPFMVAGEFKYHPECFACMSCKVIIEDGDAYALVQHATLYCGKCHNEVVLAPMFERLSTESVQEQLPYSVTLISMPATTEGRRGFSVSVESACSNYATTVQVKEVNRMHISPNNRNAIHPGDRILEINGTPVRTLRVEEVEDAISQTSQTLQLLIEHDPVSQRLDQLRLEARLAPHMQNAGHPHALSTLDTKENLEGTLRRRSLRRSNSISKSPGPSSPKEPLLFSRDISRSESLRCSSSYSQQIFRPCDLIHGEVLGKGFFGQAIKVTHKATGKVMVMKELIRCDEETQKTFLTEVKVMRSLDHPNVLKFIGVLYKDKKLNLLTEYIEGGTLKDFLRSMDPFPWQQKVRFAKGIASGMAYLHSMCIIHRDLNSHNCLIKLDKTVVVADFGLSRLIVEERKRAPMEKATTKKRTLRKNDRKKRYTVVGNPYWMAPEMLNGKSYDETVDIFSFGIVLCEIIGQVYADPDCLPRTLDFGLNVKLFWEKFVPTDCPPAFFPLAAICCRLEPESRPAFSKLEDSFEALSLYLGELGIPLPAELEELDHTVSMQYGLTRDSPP

Question: How did the % activity [1] turn out when `CNCCN1CCC(c2cc(CN(C)C(=O)c3cccc(Oc4ccccc4)c3)ccn2)CC1` was run?
Answer: > 90%

Question: With `Cc1cc(F)c(C(=O)Nc2cccc(-c3nncn3C(C)C)n2)cc1-n1cnc(C2CC2)c1` as the compound, how does the % of control [2] read?
Answer: 89%

Question: What about the % of control [3] of the same compound?
Answer: 100%

Question: How did the % of control [4] turn out when `Cn1cc(-n2cnc3c(NCc4nc5cc(Cl)c(Cl)cc5[nH]4)nc(N4CCOCC4)nc32)cn1` was run?
Answer: -1.93%

Question: For `COc1cc(Nc2nc(C)cc(-c3cnn4nc(OC)ccc34)n2)cc(C(F)(F)F)c1`, which % of control [5] is on record?
Answer: 98%

Question: With `N#Cc1cccc(-c2c[nH]c3ncnc(N4CCOCC4)c23)c1` as the compound, how does the % of control [6] read?
Answer: 74%

Question: With `CNC(=O)Nc1ccc(-c2nc(N3CC4CCC(C3)O4)c3cnn(C4CCC5(CC4)OCCO5)c3n2)cc1` as the compound, how does the % of control (SRSF protein kinase 1) read?
Answer: 100%

Question: Which % of inhibition [7] does the source give for `CC[C@@H]1[C@H](F)C(=O)N[C@@H]1COc1nccc2cc(C(N)=O)c(OC)cc12` [ZIMLOVISERTIB] here?
Answer: 77.2%
